“Also recorded” adds a separate entry of the source.
Key:
[1] = system: prostate cancer patient-derived organoid lines; test: Organoid cell viability assay (2D and 3D); format: cell-based, human; conditions: SPOP W131R-expressing organoid compared to two SPOP WT counterparts; 2D and 3D growth
Experimental: Organoid cells were obtained from Dr. Yu Chen from MSKCC and cultured according to the methodology as described elsewhere (Drost et al., Nat. Protoc., 11:347-358 (2016)). In brief, organoid cells were imbedded in 40 μL Matrigel each drop and cultured in FBS free DMEM/F12 medium supplied with several growth factors. Cell viability assays were conducted by plating 2,000 organoid cells per well of a collagen coated 96-well cell culture plate in […] media with vehicle (DMSO) control or JQ1 (0.05˜1 μM). Viable cells were counted by using a CellTiter-Glo (Promega) Luminescent Cell Viability Assay Kit.

[2] = system: C4-2 cells; test: Western blot and RT-qPCR of protein and mRNA expression in C4-2 cells; format: cell-based, human
Experimental: Cell lysates or immunoprecipitates were subjected to SDS-PAGE, and proteins were transferred to nitrocellulose membranes (GE Healthcare Sciences). The membranes were blocked in Tris-buffered saline (TBS, pH 7.4) containing 5% non-fat milk and 0.1% Tween-20, washed twice in TBS containing 0.1% Tween-20, and incubated with primary antibody overnight at 4° C., followed by secondary antibody for 1 hour at room temperature. The proteins of interest were visualized using ECL chemiluminescence system (Santa Cruz Biotechnology). Densitometry analysis of protein bands was analyzed on the Gel-Pro Analyzer software.
Total RNA was isolated from transiently transfected cells using the Trizol reagent (Thermo Fisher Scientific), and cDNA was reverse-transcribed using the Superscript RT kit (TOYOBO, Japan) according to the manufacturer's instructions. PCR amplification was performed using the SYBR Green PCR master mix Kit (TOYOBO, Japan). All quantization was normalized to the level of endogenous control GAPDH. The primer sequences for the SYBR green qPCR used were as follows: BRD2-F: 5′-[…]-3′ (SEQ ID NO:10); BRD2-R: 5′-[…]-3′ (SEQ ID NO:11); BRD3-F: 5′-[…]-3′ (SEQ ID NO:12); BRD3-R: 5′-[…]-[…]-3′ (SEQ ID NO:13); BRD4-F: 5′-[…]-GAG-3′ (SEQ ID NO:14); BRD4-F: 5′-[…]-3′ (SEQ ID NO: 15); RAC1-F: 5′-[…]-3′ (SEQ ID NO:16); RAC1-R: 5′-[…]-3′ (SEQ ID NO:17); FDFT1-F: 5′-ACTAT-[…]-3′ (SEQ ID NO:18); FDFT1-R: 5′-[…]-[…]-3′ (SEQ ID NO:19); DHCR24-F: 5′-[…]-GAGC-3′ (SEQ ID NO:20); DHCR24-R: 5′-[…]-3′(SEQ ID NO:21); DHCR7-F: 5′-[…]-3′ (SEQ ID NO: 22); DHCR7-R: 5′-[…]-3′ (SEQ ID NO:23); MVD-F: 5′-[…]-3′ (SEQ ID NO:24); MVD-R: 5′-CACAC-[…]-3′ (SEQ ID NO:25); PSA-F: 5′-[…]-[…]-3′ (SEQ ID NO:26); PSA-R: 5′-[…]-3′ (SEQ ID NO:27); TMPRSS2-F: 5′-[…]-3′ (SEQ ID NO: 28); TMPRSS2-R: 5′-[…]-3′ (SEQ ID NO:29); MYC-F: 5′-[…]-3′ (SEQ ID NO:30); MYC-R: 5′-CTTGT-[…]-3′ (SEQ ID NO:31); AR-F: 5′-[…]-TCACC-3′ (SEQ ID NO:32); AR-R: 5′-[…]-3′ (SEQ ID NO: 33); GAPDH-F: 5′-[…]-3′ (SEQ ID NO:34); and GAPDH-R: 5′-[…]-3′ (SEQ ID NO:35).
Cells were harvested and lysed by IP buffer (50 mM Tris-HCl, pH 7.4, 150 mM NaCl, 1% Triton X-100, 1% sodium deoxycholate and 1% protease inhibitor cocktails) on ice for more than 15 minutes. Cell lysate was centrifuged for 15 minutes at 13,000 rpm at 4° C., and the supernatant was quantified by BCA protein quantification assay. Equal amounts of protein sample were added into 4× sample buffer and boiled for 5 minutes. The sample was subjected to SDS-PAGE analysis and transferred to nitrocellulose membrane. The membrane was blocked by 5% milk for 1 hour at room temperature and incubated with primary antibody at 4° C. overnight. The next day, the membrane was washed three times with 1×TBST and incubated with horseradish peroxidase-conjugated secondary antibodies for 1 hour at room temperature. The protein bands were visualized by SuperSignal West Pico Stable Peroxide Solution (Thermo Fisher Scientific).
Total RNA was isolated using TRIzol reagent (Thermo Fisher Scientific). The NanoDrop 2000 spectrophotometer (Thermo Fisher Scientific) was used to assess RNA yield and quality. RNA was reversely transcribed using Superscript II reverse transcriptase (Thermo Fisher Scientific) following manufacturer's instructions. Quantitative real-time PCR was performed by mixing cDNA, gene-specific primers and IQ SYRB Green Supermix and detected by iCycler QTX detection system (Bio-Rad). The 2-ΔCt method was used to quantitate fold changes by normalizing to GAPDH.

[3] = system: DUB3; conditions: Borbely et al., Oncotarget 2015; cited from earlier work
[4] = system: 22Rv1 cells; test: Cell proliferation assay (MTS) and trypan blue assay; format: cell-based, human; conditions: JQ1 0.25 μM every other day
Experimental: CellTiter 96® AQueous One Solution Cell Proliferation Assay (MTS) (Promega) was used to measure cell growth according to the manufacturer's instructions. Briefly, cells were plated in 96-well plates at a density of 2,000 cells per well. At the indicated times, 20 μL of Cell Titer 96R Aqueous One Solution Reagent was added to medium. After incubating for 1 hour at 37° C. in the cell incubator, cell growth was measured in a microplate reader at 490 nm.
Trypan blue assay was performed to measure cell growth according to the manufacturer's instructions. Briefly, cells were plated in 6-well plates at a density of about 5×10^4 to about 1×10^5 cells per well. At the indicated time points, cells were trypsinized and suspended in 1 mL 1×PBS. 100 μL cells and 100 μL trypan blue solution (Sigma-Aldrich) were mixed, and the number of viable cells was measured using the Bio-Rad automated cell counter.

[5] = control and SPOP-F133V C4-2 cells, JQ1 1 μM, 24 hours

Cc1sc2c(c1C)C(c1ccc(Cl)cc1)=N[C@@H](CC(=O)OC(C)(C)C)c1nnc(C)n1-2 [JQ1]
sensitivity of organoid to JQ1 [1]: resistant | ERG expression ([2]; C4-2 and 22Rv1 cells (JQ1 1 μM, 24 hours) and C4-2 tumors): largely decreased | BRD4 protein level ([2]; C4-2 cells, JQ1): increased | DUB3 mRNA and protein levels ([2]; C4-2 cells, JQ1): opposite; also recorded: upregulation | NCOR2 protein and mRNA expression ([2]; C4-2 cells, dose- and time-dependent): decreased | expression of cholesterol synthesis genes (FDFT1, DHCR24, DHCR7, MVD) and BRD4 binding at their promoters ([2]; SPOP-F133V C4-2 cells, JQ1 1 μM, 24 hours): not pronounced | expression of cholesterol synthesis genes (FDFT1, DHCR24, DHCR7, MVD) and BRD4 binding at their promoters ([2]; control C4-2 cells, JQ1 1 μM, 24 hours): largely inhibited | AR protein level [2, 5]: largely decreased | AR transcriptional activity [2, 5]: largely decreased | MYC protein expression [2, 5]: markedly decreased | expression of receptor tyrosine kinases HER3, IGF1R and INSR [2, 5]: no effect | DUB3 mRNA level [3]: rapid upregulation | cell growth ([4]; EV-expressing 22Rv1 cells): inhibited growth | effect on cell growth ([4]; SPOP-F133V-expressing 22Rv1 cells): largely impeded
